This assay addresses T1, Bcl-2 protein (Recombinant Human Bcl-2 Protein) (Homo sapiens, UniProt P10415).
T1 construct: purchased Novus NBP2-34889
The assay is described as follows: Binding evaluation of mixture library compounds to Bcl-2 using AS-MS (affinity selection mass spectrometry). As to conditions: for ASMS ratio (%) n = 1 / ASMS ratio (%) n = 2: ASMS Ratio(%)=(A−C)/B×100; for ASMS ratio (%) n = 1: replicate n = 1; for ASMS ratio (%) n = 2: replicate n = 2. The gist of the method:
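Pooled library of ~1200 compounds ([…] each, final) incubated with recombinant human Bcl-2 (20 μM final) in Tris-HCl pH 7.4, NaCl, Tween-20, DTT buffer, dark, 23° C., 1 h. Bound fraction recovered by SEC spin column, organic extraction, reversed-phase LC/MS. ASMS Ratio (%) = (A−C)/B×100 versus protein-free standard and SEC blank.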

Where [1] appears, read: AS-MS, mixture of 1200 compounds, Bcl-2.
Where [2] appears, read: AS-MS on the mixture of 1200 library compounds.

T1 sequence (P10415 whole entry): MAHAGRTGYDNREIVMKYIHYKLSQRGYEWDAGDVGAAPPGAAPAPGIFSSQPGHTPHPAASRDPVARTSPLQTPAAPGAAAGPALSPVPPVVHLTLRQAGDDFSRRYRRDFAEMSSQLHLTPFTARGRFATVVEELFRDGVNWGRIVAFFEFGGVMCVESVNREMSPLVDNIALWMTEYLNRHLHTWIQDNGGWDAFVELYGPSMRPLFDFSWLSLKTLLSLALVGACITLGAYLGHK

With “6-[4-[[3-Ethoxy-5-(5-ethoxypyridin-3-yl)phenyl]methyl]piperazin-1-yl]-N-propylpyridazine-3-carboxamide [B1M012-01]”, under setting [1], the “ASMS ratio (%) n = 1” value is recorded as −3.5% and the “ASMS ratio (%) n = 2” value is −2.3%. As for `CCOc1cncc(C#Cc2cc(C(=O)N3CCN(c4ccc(C(=O)NS(=O)(=O)CC56CC7CC(CC(C7)C5)C6)nn4)CC3)cc(C(F)(F)F)c2)c1` [B2A020-01, N-(1-Adamantylmethylsulfonyl)-6-[4-[3-[2-(5-ethoxypyridin-3-yl)ethynyl]-5-(trifluoromethyl)benzoyl]piperazin-1-yl]pyridazine-3-carboxamide], for the setting “AS-MS, mixture library, Bcl-2”, the “ASMS ratio (%) n = 1” value worked out at 3.4% and the “ASMS ratio (%) n = 2” value is recorded as 8.9%. Consider `CCOc1cccc(-c2ccccc2CN2CCN(c3ccc(C(=O)Nc4ccc(OC)cc4)cc3)CC2)c1` [B1O045-01, 4-[4-[[2-(3-Ethoxyphenyl)phenyl]methyl]piperazin-1-yl]-N-(4-methoxyphenyl)benzamide], for which, under setting [2], the “ASMS ratio (%) n = 1” value is 0.0% and the “ASMS ratio (%) n = 2” value is 0.0%. Regarding `CCOc1cncc(-c2cc(CN3CCN(c4ccc(C(=O)NS(=O)(=O)CC56CC7CC(CC(C7)C5)C6)nn4)CC3)cc(OC(F)(F)F)c2)c1` [B2A090-01, N-(1-Adamantylmethylsulfonyl)-6-[4-[[3-(5-ethoxypyridin-3-yl)-5-(trifluoromethoxy)phenyl]methyl]piperazin-1-yl]pyridazine-3-carboxamide], under “AS-MS, mixture library, Bcl-2”, the “ASMS ratio (%) n = 1” value came to 22.0% and the “ASMS ratio (%) n = 2” value amounted to 4.7%. Regarding `CCOc1cccc(-c2ccc(CN3CCN(c4ccc(C(=O)NCC(F)(F)F)nn4)CC3)cc2F)c1` [B1K077-01, 6-[4-[[4-(3-Ethoxyphenyl)-3-fluorophenyl]methyl]piperazin-1-yl]-N-(2,2,2-trifluoroethyl)pyridazine-3-carboxamide], under setting [1], the “ASMS ratio (%) n = 1” value was 2.4% and the “ASMS ratio (%) n = 2” value is −0.2%. Regarding `CCOc1cccc(-c2ccc(CN3CCN(c4ccc(C(=O)N(CC)CC)cc4)CC3)cc2C)c1` [B4J047-01, 4-[4-[[4-(3-Ethoxyphenyl)-3-methylphenyl]methyl]piperazin-1-yl]-N,N-diethylbenzamide], under setting [2], the “ASMS ratio (%) n = 1” value is given as −6.6% and the “ASMS ratio (%) n = 2” value is reported as 0.0%. The corresponding values for `CCOc1cccc(-c2ccc(C(C)N3CCN(c4ccc(C(=O)Nc5ccc(OC)cc5)cc4)CC3)cc2)c1` (centres unmarked) [B1O097-01, 4-[4-[1-[4-(3-Ethoxyphenyl)phenyl]ethyl]piperazin-1-yl]-N-(4-methoxyphenyl)benzamide] are 4.2% and 2.2%. As for `CCOc1cccc(-c2ccc(C(=O)N3CCN(c4ccc(C(=O)N(C)CC56CC7CC(CC(C7)C5)C6)nn4)CC3)cc2F)c1` [B3A005-01, N-(1-Adamantylmethyl)-6-[4-[4-(3-ethoxyphenyl)-3-fluorobenzoyl]piperazin-1-yl]-N-methylpyridazine-3-carboxamide], under setting [2], the “ASMS ratio (%) n = 1” value is reported as −1.5% and the “ASMS ratio (%) n = 2” value was −4.8%. For `CCOc1cccc(-c2ccc(CN3CCN(c4ccc(C(=O)Nc5ccc(OC)cc5)nn4)CC3)c(CC)c2)c1` [B1O075-01, 6-[4-[[4-(3-Ethoxyphenyl)-2-ethylphenyl]methyl]piperazin-1-yl]-N-(4-methoxyphenyl)pyridazine-3-carboxamide], in that order: 9.3% and 0.8%. As to `CCOc1cccc(-c2cc(CN3CCN(c4ccc(C(=O)NS(=O)(=O)CCC(F)(F)F)nn4)CC3)cc(OC(F)(F)F)c2)c1` [B2N089-01, 6-[4-[[3-(3-Ethoxyphenyl)-5-(trifluoromethoxy)phenyl]methyl]piperazin-1-yl]-N-(3,3,3-trifluoropropylsulfonyl)pyridazine-3-carboxamide], the “ASMS ratio (%)” value (n = 2) turned out to be 0.0%. For `CCOc1cncc(-c2ccc(C(C)N3CCN(c4ccc(C(=O)NCC(F)(F)F)cc4)CC3)cc2)c1` (centres unmarked) [B1K098-01, 4-[4-[1-[4-(5-Ethoxypyridin-3-yl)phenyl]ethyl]piperazin-1-yl]-N-(2,2,2-trifluoroethyl)benzamide], under setting [1], the “ASMS ratio (%) n = 1” value is −1.1% and the “ASMS ratio (%) n = 2” value is on record as −2.4%.

For the compound `CCOc1cccc(-c2ccccc2CN2CCN(c3ccc(C(=O)N(CC)CC)nn3)CC2)c1` [B4J071-01], under “AS-MS, mixture library, Bcl-2”, the “ASMS ratio (%) n = 1” value is reported as 0.4% and the “ASMS ratio (%) n = 2” value is on record as −0.5%. With `CCOc1cccc(-c2ccc(CN3CCN(c4ccc(C(=O)NCC56CC7CC(CC(C7)C5)C6)cc4)CC3)c3ccccc23)c1` [B1A065-01, N-(1-Adamantylmethyl)-4-[4-[[4-(3-ethoxyphenyl)naphthalen-1-yl]methyl]piperazin-1-yl]benzamide], under setting [1], the “ASMS ratio (%) n = 1” value is given as −32.6% and the “ASMS ratio (%) n = 2” value is −10.4%. For `CCOc1cncc(-c2ccccc2CN2CCN(c3ccc(C(=O)NCC45CC6CC(CC(C6)C4)C5)cc3)CC2)c1` [B1A046-01, N-(1-Adamantylmethyl)-4-[4-[[2-(5-ethoxypyridin-3-yl)phenyl]methyl]piperazin-1-yl]benzamide], in that order: 0.0% and 0.0%. Turning to `CCOc1cccc(-c2ccc(C(=O)N3CCN(c4ccc(C(=O)N(C)CC56CC7CC(CC(C7)C5)C6)cc4)CC3)cc2C)c1` [B3A025-01, N-(1-Adamantylmethyl)-4-[4-[4-(3-ethoxyphenyl)-3-methylbenzoyl]piperazin-1-yl]-N-methylbenzamide], under setting [2], the “ASMS ratio (%) n = 1” value was determined as 15.7% and the “ASMS ratio (%) n = 2” value is −19.6%. Regarding `CCOc1cccc(-c2csc(CN3CCN(c4ccc(C(=O)Nc5ccc(OC)cc5)cc4)CC3)c2)c1` [B1O067-01], under setting [2], the “ASMS ratio (%) n = 1” value amounted to 0.0% and the “ASMS ratio (%) n = 2” value is reported as 0.0%. With `CCOc1cccc(-c2ccc(C(=O)N3CCN(c4ccc(C(=O)NCC(F)(F)F)cc4)CC3)cc2C)c1` [B1K025-01, 4-[4-[4-(3-Ethoxyphenyl)-3-methylbenzoyl]piperazin-1-yl]-N-(2,2,2-trifluoroethyl)benzamide], under setting [1], the “ASMS ratio (%) n = 1” value is reported as 0.3% and the “ASMS ratio (%) n = 2” value is on record as −0.8%. Turning to `CCOc1cccc(C#Cc2ccccc2C(=O)N2CCN(c3ccc(C(=O)N(CC)CC)nn3)CC2)c1` [B4J007-01, 6-[4-[2-[2-(3-Ethoxyphenyl)ethynyl]benzoyl]piperazin-1-yl]-N,N-diethylpyridazine-3-carboxamide], under setting [2], the “ASMS ratio (%) n = 1” value is reported as −1.0% and the “ASMS ratio (%) n = 2” value was 1.5%. As to `CCOc1cccc(-c2cc(CN3CCN(c4ccc(C(=O)Nc5ccc(OC)cc5)nn4)CC3)cc(OC(F)(F)F)c2)c1` [B1O089-01, 6-[4-[[3-(3-Ethoxyphenyl)-5-(trifluoromethoxy)phenyl]methyl]piperazin-1-yl]-N-(4-methoxyphenyl)pyridazine-3-carboxamide], under setting [2], the “ASMS ratio (%) n = 1” value stood at 3.8% and the “ASMS ratio (%) n = 2” value is on record as −5.3%. In the case of `CCOc1cccc(-c2ccccc2CN2CCN(c3ccc(C(=O)NS(=O)(=O)C(C)(C)C)cc3)CC2)c1` [B2L045-01, N-tert-Butylsulfonyl-4-[4-[[2-(3-ethoxyphenyl)phenyl]methyl]piperazin-1-yl]benzamide], the “ASMS ratio (%)” value is, setting by setting: (n = 1) 0.0%; (n = 2) 0.0%.

Consider “6-[4-[[2-[2-(5-Ethoxypyridin-3-yl)ethynyl]phenyl]methyl]piperazin-1-yl]-N-propylpyridazine-3-carboxamide [B1M055-01]”, for which, under setting [1], the “ASMS ratio (%) n = 1” value came out at 3.9% and the “ASMS ratio (%) n = 2” value is on record as −1.2%.

The record behind these values is US20240132431A1, “METHOD FOR ALKYLATING ACIDIC FUNCTIONAL GROUP” (Chugai Seiyaku Kabushiki Kaisha, priority 2021, published 2024).
